The target of one data set is T1, IKZF3 (Homo sapiens, UniProt Q96SW2+Q9UKT9).
T1 construct: host or cells: Mino
The experiment in a line: TMT-based quantitative proteomics in Mino cells, IKZF3. The format is cell-based. As to conditions: 200 nM, 4 h. On the procedure:
(§1) Panel a. […] Panel b. […] Panel c. […] Panel d-e. […] Panel g.
(§2) Two million of Mino cells were treated with DMSO or 200 nM of PS-2 for 4 hours in biological triplicates and cells were harvested by centrifugation (200×g, 4° C., 5 min). Lysis buffer (100 mM Triethylammonium bicarbonate (TEAB, Thermo Fisher Scientific, Cat. No. 90114), 2% SDS) was added to the cell pellets and homogenized with a microtip sonicator (Branson) to achieve a cell lysate with a protein concentration of ˜2 mg mL^−1. Protein concentration was determined using BCA assay (Pierce, Cat. No. 23225) and normalized to 1 mg mL^−1. One hundred μg of protein for each sample were reduced and alkylated with 10 mM Tris(2-carboxyethyl) phosphine hydrochloride (TCEP, Sigma, Cat. No. C4706) and 17 mM iodoacetamide (IAA, Sigma, Cat. No. 16125-5G), followed by digestion with trypsin (1:20, enzyme: protein, Thermo Fisher Scientific, Cat. No. 90058) for 16 h shaking at 37° C. […]
(§3) Next, tandem mass tagging (TMT)-based quantitative proteomic profiling was performed to evaluate the degradation specificity of PS-2. […] Quantitative proteomics employing TMT chemical labeling coupled with LC/MS/MS enabled the detection of >2,500 unique proteins without fractionation (FIG. 4f). […]

The target in the next data set is T2, CSK (Homo sapiens, UniProt P41240).
T2 construct: host or cells: Mino
T2 sequence (P41240 whole entry): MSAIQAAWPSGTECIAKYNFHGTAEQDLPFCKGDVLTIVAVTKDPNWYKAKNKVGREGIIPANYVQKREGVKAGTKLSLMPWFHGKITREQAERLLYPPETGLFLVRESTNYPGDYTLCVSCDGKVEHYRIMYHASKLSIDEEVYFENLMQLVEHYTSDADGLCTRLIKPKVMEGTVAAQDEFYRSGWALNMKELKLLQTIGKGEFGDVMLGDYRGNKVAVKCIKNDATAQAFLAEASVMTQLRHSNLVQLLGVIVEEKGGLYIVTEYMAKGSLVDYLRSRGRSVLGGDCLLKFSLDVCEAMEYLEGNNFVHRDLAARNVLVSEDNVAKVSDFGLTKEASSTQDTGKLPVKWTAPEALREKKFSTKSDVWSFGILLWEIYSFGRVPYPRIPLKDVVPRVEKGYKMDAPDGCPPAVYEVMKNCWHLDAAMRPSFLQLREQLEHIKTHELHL
The experiment in a line: TMT-based quantitative proteomics in Mino cells, CSK. The format is cell-based. As to conditions: 200 nM, 4 h. The procedure: as §1, §2, §3

Data set [1] addresses T3, BTK (Mus musculus, UniProt P35991).
T3 construct: host or cells: A20
The experiment in a line: Western blotting for BTK in A20 cells. The format is cell-based. The note with it: A20 cells, 40, 200 and 1000 nM, 24 h, Western blot. On the procedure:
CC-220 is a IKZF1/3 degrader developed by Celgene and used for comparison.
In contrast, PS-3, whose warhead is further reduced compared with PS-2, loses its ability to function as either a BTK degrader or a potent IKZF1/3 molecular glue. To confirm this observation, BTK degradation induced by PS-1, PS-2, and PS-3 was tested in both a human B lymphocyte cell line Ramos and mouse BALB/c B cell lymphoma line A20, with DD-03-171 from the Gray group as a positive control (FIG. 5).

The target of data set [2] is T4, BTK-Hibit (Homo sapiens, UniProt Q06187).
T4 construct: endogenous in cells; host or cells: Ramos (BTK-Hibit knock-in)
T4 sequence (Q06187 2-659 limits assumed): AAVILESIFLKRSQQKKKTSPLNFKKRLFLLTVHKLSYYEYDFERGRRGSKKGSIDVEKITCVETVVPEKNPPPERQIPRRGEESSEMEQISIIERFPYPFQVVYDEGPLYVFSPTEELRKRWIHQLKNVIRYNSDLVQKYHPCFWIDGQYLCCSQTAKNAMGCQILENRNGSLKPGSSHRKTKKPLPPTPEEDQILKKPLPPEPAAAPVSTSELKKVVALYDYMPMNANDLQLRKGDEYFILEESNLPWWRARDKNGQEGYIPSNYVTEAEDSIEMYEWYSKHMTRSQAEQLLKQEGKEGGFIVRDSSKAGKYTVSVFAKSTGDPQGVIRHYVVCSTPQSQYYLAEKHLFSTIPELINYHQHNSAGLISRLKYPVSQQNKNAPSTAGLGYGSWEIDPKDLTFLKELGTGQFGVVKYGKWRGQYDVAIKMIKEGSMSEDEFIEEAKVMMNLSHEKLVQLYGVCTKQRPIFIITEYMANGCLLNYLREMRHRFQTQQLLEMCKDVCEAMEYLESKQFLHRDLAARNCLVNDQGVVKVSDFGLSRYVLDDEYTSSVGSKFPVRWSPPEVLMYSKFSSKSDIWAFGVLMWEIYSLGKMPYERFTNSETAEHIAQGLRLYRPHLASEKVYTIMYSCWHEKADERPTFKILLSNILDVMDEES
T4 sequence (Q96SW2 whole entry, further chain): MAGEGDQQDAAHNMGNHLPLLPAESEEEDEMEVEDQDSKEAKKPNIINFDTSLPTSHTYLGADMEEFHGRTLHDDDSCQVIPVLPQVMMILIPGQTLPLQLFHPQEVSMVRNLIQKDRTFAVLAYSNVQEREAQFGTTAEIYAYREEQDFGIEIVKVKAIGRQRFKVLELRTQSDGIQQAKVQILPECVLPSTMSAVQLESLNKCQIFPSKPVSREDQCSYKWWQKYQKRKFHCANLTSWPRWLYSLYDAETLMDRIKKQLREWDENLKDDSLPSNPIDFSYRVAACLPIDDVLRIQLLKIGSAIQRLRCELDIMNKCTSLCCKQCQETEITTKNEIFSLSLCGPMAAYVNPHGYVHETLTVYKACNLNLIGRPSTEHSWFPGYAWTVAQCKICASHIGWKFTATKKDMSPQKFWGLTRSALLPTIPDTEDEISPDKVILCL
T4 sequence (Q16531 whole entry partner): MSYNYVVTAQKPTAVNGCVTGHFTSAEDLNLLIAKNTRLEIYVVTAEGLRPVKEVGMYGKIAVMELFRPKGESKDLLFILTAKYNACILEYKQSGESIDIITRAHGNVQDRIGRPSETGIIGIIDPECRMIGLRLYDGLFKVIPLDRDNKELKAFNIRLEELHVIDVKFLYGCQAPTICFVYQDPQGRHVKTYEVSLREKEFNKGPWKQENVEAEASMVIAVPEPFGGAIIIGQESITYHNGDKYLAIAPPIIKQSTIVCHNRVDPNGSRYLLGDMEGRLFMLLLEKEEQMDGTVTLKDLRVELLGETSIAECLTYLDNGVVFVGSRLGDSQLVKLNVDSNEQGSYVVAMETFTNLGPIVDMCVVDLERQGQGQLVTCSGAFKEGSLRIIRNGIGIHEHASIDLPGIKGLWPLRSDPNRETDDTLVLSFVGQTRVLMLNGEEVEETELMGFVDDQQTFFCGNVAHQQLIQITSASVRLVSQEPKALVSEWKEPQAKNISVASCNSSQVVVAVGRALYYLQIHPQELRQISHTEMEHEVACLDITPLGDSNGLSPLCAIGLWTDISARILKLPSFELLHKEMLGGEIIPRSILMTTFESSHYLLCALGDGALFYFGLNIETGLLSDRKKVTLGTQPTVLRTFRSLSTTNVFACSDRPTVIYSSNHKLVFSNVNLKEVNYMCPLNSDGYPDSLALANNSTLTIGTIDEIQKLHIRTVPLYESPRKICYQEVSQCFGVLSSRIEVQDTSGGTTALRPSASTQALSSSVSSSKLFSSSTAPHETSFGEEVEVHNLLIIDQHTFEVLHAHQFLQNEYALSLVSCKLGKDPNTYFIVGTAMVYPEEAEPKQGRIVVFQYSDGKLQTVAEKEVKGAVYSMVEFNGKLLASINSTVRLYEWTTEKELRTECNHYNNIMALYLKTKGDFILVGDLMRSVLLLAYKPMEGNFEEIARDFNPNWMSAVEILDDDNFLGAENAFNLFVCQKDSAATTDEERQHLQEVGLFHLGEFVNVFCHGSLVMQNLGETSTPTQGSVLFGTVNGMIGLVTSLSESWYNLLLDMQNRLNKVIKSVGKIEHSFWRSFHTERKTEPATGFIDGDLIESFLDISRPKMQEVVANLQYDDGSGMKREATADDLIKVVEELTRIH
The experiment in a line: BTK degradation in BTK-Hibit knock-in Ramos cells. The note with it: 24 hours. The format is cell-based. On the procedure:
(§4) Ramos cells were treated with the indicated compounds at the indicated concentrations for 24 hours. Nurix and DD-03-171 were used as the controls.
(§5) To further illustrate the BTK degradation ability of PS-2, BTK-Hibit knock-in Ramos cells were treated with PS-2 for 24 hours, using Nurix and DD-03171 as controls (FIG. 6).

Data set [3] deals with T5, BTK-Hibit (Homo sapiens, UniProt Q06187+Q96SW2).
T5 construct: endogenous in cells; host or cells: Ramos (BTK-Hibit knock-in)
T5 sequence (Q06187 2-659 limits assumed): as the sequence (Q06187 2-659 limits assumed) above
T5 sequence (Q96SW2 whole entry): as the sequence (Q96SW2 whole entry, further chain) above
T5 sequence (Q16531 whole entry partner): as the sequence (Q16531 whole entry partner) above
The experiment in a line: BTK degradation in BTK-Hibit knock-in Ramos cells. The note with it: 24 hours. The format is cell-based. The procedure: as §4, §5

A short description of data set [4]: Mouse S9 metabolic stability assay. Type of data set: in vitro ADME. As to conditions: co-incubated with mouse liver S9 enzymes, LC-MS; read-out: t1/2 in mouse liver S9. On the procedure: To verify the metabolic stability of PS-2, PS-2 was co-incubated with mouse liver S9 enzymes and LC-MS was used to test the remaining amount of PS-2 compound. DD-03-171 was used as a control (FIG. 11).

Data set [5] has as its target T6, BTK (Homo sapiens, UniProt Q06187). The experiment in a line: Western blotting for BTK in Mino cells. Type of data set: cell-based. The note with it: up to 1000 nM, 24 h, Western blot. Details: host or cells: Mino. In a few lines:
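Mino cells were given serial 5-fold dilutions of compound (1,000-1.6 nM) for 24 h, then lysed. Immunoblots of 30 μg protein probed BTK, with band intensity normalized to β-actin. […]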

Data set [6] concerns the target T6, BTK. Put plainly: BTK ligand competition assay in Ramos cells (Western blotting for BTK). The note with it: 100 nM, 24 hours, Western blot. Type of data set: cell-based. Details: host or cells: Ramos.
Method: Ramos cells were incubated overnight, and then the indicated compounds were added and incubated for 24 hours, followed by Western blotting for BTK degradation.
Ramos cells were incubated overnight, and then the indicated compounds were added and incubated for 24 hours, followed by Western blotting for BTK degradation (FIG. 7).

From patent publication US20240383910A1, “SMALL MOLECULE BTK DEGRADERS AND METHODS OF USE THEREOF” (Baylor College of Medicine, priority 2023, published 2024) come the findings set out here.

T6 sequence (Q06187 whole entry): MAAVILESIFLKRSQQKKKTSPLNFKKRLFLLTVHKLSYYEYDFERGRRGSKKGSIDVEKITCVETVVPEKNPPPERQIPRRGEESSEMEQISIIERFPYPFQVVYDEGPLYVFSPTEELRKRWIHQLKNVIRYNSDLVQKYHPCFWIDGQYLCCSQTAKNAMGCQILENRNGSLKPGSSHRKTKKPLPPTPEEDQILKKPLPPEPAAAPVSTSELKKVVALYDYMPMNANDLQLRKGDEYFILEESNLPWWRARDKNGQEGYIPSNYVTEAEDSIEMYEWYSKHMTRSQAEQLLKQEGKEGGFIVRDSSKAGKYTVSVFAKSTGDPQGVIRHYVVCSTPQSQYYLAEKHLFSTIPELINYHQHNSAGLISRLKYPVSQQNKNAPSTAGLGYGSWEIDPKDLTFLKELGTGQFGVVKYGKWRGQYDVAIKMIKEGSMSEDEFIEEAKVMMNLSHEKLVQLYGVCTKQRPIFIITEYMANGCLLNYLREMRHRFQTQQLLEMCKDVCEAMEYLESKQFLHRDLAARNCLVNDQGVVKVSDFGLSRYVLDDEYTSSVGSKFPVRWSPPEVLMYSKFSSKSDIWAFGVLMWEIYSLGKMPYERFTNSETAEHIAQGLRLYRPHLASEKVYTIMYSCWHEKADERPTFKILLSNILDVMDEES
T1 sequence (Q9UKT9 whole entry): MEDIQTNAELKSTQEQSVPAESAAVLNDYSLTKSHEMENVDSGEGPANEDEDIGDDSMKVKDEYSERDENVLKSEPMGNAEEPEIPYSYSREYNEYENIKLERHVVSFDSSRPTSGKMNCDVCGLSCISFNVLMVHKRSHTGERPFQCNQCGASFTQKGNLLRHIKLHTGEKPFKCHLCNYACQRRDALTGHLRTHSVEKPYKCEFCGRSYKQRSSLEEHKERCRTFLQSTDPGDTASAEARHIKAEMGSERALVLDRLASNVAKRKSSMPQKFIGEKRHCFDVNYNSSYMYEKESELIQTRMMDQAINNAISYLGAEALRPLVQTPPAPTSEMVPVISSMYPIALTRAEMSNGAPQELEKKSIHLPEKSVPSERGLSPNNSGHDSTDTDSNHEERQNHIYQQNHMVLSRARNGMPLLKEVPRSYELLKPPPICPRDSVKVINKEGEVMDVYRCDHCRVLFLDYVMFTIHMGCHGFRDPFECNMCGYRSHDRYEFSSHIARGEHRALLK
T1 sequence (Q96SW2 whole entry): as the sequence (Q96SW2 whole entry, further chain) above
T1 sequence (Q16531 whole entry partner): as the sequence (Q16531 whole entry partner) above
T3 sequence (P35991 whole entry): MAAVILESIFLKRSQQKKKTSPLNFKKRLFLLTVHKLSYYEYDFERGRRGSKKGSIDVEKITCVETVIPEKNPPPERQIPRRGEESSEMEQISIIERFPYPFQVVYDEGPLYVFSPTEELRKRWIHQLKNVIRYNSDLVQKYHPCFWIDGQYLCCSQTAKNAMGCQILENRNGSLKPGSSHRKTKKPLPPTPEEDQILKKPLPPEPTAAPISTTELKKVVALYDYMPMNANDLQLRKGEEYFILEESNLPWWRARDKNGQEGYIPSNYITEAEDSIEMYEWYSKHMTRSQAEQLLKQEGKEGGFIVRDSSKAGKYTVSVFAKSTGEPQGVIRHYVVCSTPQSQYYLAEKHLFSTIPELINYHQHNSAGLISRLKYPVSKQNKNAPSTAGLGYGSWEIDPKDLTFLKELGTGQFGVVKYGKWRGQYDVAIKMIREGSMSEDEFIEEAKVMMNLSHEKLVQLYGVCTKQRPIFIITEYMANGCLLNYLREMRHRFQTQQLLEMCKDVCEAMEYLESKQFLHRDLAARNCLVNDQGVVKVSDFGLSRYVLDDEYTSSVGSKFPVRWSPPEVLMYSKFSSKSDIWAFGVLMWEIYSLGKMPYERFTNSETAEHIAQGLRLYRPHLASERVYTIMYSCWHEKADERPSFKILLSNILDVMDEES

On to `O=C1CCC(N2C(=O)c3cccc(NCC(=O)N4CCN(c5ccc(Nc6nccc(Oc7ccccc7)n6)cc5)CC4)c3C2=O)C(=O)N1` (centres unmarked) [PS-2, 2-(2,6-Dioxopiperidin-3-yl)-4-((2-oxo-2-(4-(4-((4-phenoxypyrimidin-2-yl)amino)phenyl)piperazin-1-yl)ethyl)amino)isoindoline-1,3-dione], for which the “degradation of IKZF3” value on IKZF3 is above 60%. Also, on CSK, the “CSK protein level change” value is “downregulated”. In addition, the “BTK degradation (result in words)” value is on record as “potent BTK degradation” at BTK [1] and “potently induces BTK degradation” at BTK [5]. This compound returned a DC50 on BTK-Hibit [2] of 3.75 nM. Moreover, the Dmax at BTK-Hibit [3] was 84.7%. Moreover, in data set [4], the half-life is around 20 min. Further, the “BTK degradation at 100 nM” value on BTK [6] was “Most BTK protein was degraded”.

Usually DC50 stands for the concentration at which degradation of the target reaches its halfway point. One may read the Dmax as the greatest extent of degradation seen.
